Values after ≈ are worked out from the molar mass of the structure shown.
How the values were obtained:
Type in all cases: functional
[1] = system: Staphylococcus aureus; assay: Antibacterial activity against multidrug-resistant Staphylococcus aureus CCARM 3167 incubated for 24 hrs serial dilution method; conditions: CCARM 3167, 24 h
[2] = system: Escherichia coli; assay: Antibacterial activity against Escherichia coli 1356 incubated for 24 hrs serial dilution method; conditions: Escherichia coli, 1356, 24 h
[3] = system: Staphylococcus aureus; assay: Antibacterial activity against quinolone-resistant Staphylococcus aureus CCARM 3519 incubated for 24 hrs serial dilution method; conditions: CCARM 3519, 24 h
[4] = system: Staphylococcus aureus; assay: Antibacterial activity against Staphylococcus aureus KCTC 209 incubated for 24 hrs serial dilution method; conditions: KCTC 209, 24 h
[5] = system: Staphylococcus aureus; assay: Antibacterial activity against multidrug-resistant Staphylococcus aureus CCARM 3506 incubated for 24 hrs serial dilution method; conditions: CCARM 3506, 24 h
[6] = system: Staphylococcus aureus; assay: Antibacterial activity against quinolone-resistant Staphylococcus aureus CCARM 3505 incubated for 24 hrs serial dilution method; conditions: CCARM 3505, 24 h
[7] = system: Staphylococcus aureus; assay: Antibacterial activity against Staphylococcus aureus RN 4220 incubated for 24 hrs serial dilution method; conditions: RN 4220, 24 h
[8] = system: Staphylococcus aureus; assay: Antibacterial activity against Staphylococcus aureus KCTC 503 incubated for 24 hrs serial dilution method; conditions: KCTC 503, 24 h

Structure (SMILES) | MIC [1] [µg/mL] | MIC [2] [µg/mL] | MIC [3] [µg/mL] | MIC [4] [µg/mL] | MIC [5] [µg/mL] | MIC [6] [µg/mL] | MIC [7] [µg/mL] | MIC [8] [µg/mL]
Cc1ccc(Oc2c(/C=C3\SC(=S)N([C@@H](Cc4ccc(O)cc4)C(=O)O)C3=O)c(C)nn2-c2ccccc2)c(C)c1 | 8 (≈ 13.7 µM) | > 64 | 8 (≈ 13.7 µM) | > 64 | 8 (≈ 13.7 µM) | 8 (≈ 13.7 µM) | 8 (≈ 13.7 µM) | > 64
Cc1ccccc1Oc1c(/C=C2\SC(=S)N([C@@H](Cc3c[nH]c4ccccc34)C(=O)O)C2=O)c(C)nn1-c1ccccc1 | 2 (≈ 3.36 µM) | > 64 | 8 (≈ 13.5 µM) | > 64 | 4 (≈ 6.73 µM) | 8 (≈ 13.5 µM) | 8 (≈ 13.5 µM) | > 64
COc1ccc(Oc2c(/C=C3\SC(=S)N([C@@H](Cc4ccc(O)cc4)C(=O)O)C3=O)c(C)nn2-c2ccccc2)cc1 | – | > 64 | – | > 64 | – | – | > 32 | > 64
Cc1nn(-c2ccccc2)c(Oc2cccc(C(F)(F)F)c2)c1/C=C1\SC(=S)N([C@@H](Cc2c[nH]c3ccccc23)C(=O)O)C1=O | 4 (≈ 6.17 µM) | > 64 | 8 (≈ 12.3 µM) | > 64 | 4 (≈ 6.17 µM) | 4 (≈ 6.17 µM) | 4 (≈ 6.17 µM) | > 64
Cc1nn(-c2ccccc2)c(Oc2ccc(Br)cc2)c1/C=C1\SC(=S)N([C@@H](Cc2ccc(O)cc2)C(=O)O)C1=O | 8 (≈ 12.6 µM) | > 64 | 8 (≈ 12.6 µM) | > 64 | 8 (≈ 12.6 µM) | 8 (≈ 12.6 µM) | 8 (≈ 12.6 µM) | > 64
CCn1cc(C(=O)O)c(=O)c2cc(F)c(N3CCNCC3)cc21 [NORFLOXACIN] | 8 (≈ 25.1 µM) | > 16 | > 64 | 2 (≈ 6.26 µM) | 4 (≈ 12.5 µM) | > 64 | 2 (≈ 6.26 µM) | 2 (≈ 6.26 µM)
Cc1nn(-c2ccccc2)c(Oc2ccc(F)cc2)c1/C=C1\SC(=S)N([C@@H](Cc2c[nH]c3ccccc23)C(=O)O)C1=O | 4 (≈ 6.68 µM) | > 64 | 8 (≈ 13.4 µM) | > 64 | 4 (≈ 6.68 µM) | 8 (≈ 13.4 µM) | 8 (≈ 13.4 µM) | > 64
Cc1ccc(Oc2c(/C=C3\SC(=S)N([C@@H](Cc4ccc(O)cc4)C(=O)O)C3=O)c(C)nn2-c2ccccc2)cc1 | 8 (≈ 14 µM) | > 64 | 16 (≈ 28 µM) | > 64 | 8 (≈ 14 µM) | 16 (≈ 28 µM) | 16 (≈ 28 µM) | > 64
Cc1nn(-c2ccccc2)c(Oc2ccc3ccccc3c2)c1/C=C1\SC(=S)N([C@@H](Cc2c[nH]c3ccccc23)C(=O)O)C1=O | 2 (≈ 3.17 µM) | > 64 | 2 (≈ 3.17 µM) | > 64 | 2 (≈ 3.17 µM) | 2 (≈ 3.17 µM) | 2 (≈ 3.17 µM) | > 64
Cc1nn(-c2ccccc2)c(Oc2cccc(C(F)(F)F)c2)c1/C=C1\SC(=S)N([C@@H](Cc2ccc(O)cc2)C(=O)O)C1=O | 16 (≈ 25.6 µM) | > 64 | 32 (≈ 51.1 µM) | > 64 | 16 (≈ 25.6 µM) | 32 (≈ 51.1 µM) | 16 (≈ 25.6 µM) | > 64
Cc1nn(-c2ccccc2)c(Oc2ccc(Cl)cc2)c1/C=C1\SC(=S)N([C@@H](Cc2ccc(O)cc2)C(=O)O)C1=O | 16 (≈ 27 µM) | > 64 | 8 (≈ 13.5 µM) | > 64 | 8 (≈ 13.5 µM) | 16 (≈ 27 µM) | 16 (≈ 27 µM) | > 64
Cc1nn(-c2ccccc2)c(Oc2cccc(Cl)c2)c1/C=C1\SC(=S)N([C@@H](Cc2ccc(O)cc2)C(=O)O)C1=O | 8 (≈ 13.5 µM) | > 64 | 16 (≈ 27 µM) | > 64 | 16 (≈ 27 µM) | 32 (≈ 54 µM) | 16 (≈ 27 µM) | > 64
Cc1nn(-c2ccccc2)c(Oc2ccc(F)cc2)c1/C=C1\SC(=S)N([C@@H](Cc2ccc(O)cc2)C(=O)O)C1=O | – | > 64 | – | > 64 | – | – | > 32 | > 64
Cc1nn(-c2ccccc2)c(Oc2c(Cl)cccc2Cl)c1/C=C1\SC(=S)N([C@@H](Cc2c[nH]c3ccccc23)C(=O)O)C1=O | 4 (≈ 6.16 µM) | > 64 | 4 (≈ 6.16 µM) | > 64 | 4 (≈ 6.16 µM) | 4 (≈ 6.16 µM) | 4 (≈ 6.16 µM) | > 64
Cc1nn(-c2ccccc2)c(Oc2ccccc2)c1/C=C1\SC(=S)N([C@@H](Cc2c[nH]c3ccccc23)C(=O)O)C1=O | 8 (≈ 13.8 µM) | > 64 | 8 (≈ 13.8 µM) | > 64 | 8 (≈ 13.8 µM) | 8 (≈ 13.8 µM) | 8 (≈ 13.8 µM) | > 64
Cc1cccc(Oc2c(/C=C3\SC(=S)N([C@@H](Cc4c[nH]c5ccccc45)C(=O)O)C3=O)c(C)nn2-c2ccccc2)c1 | 4 (≈ 6.73 µM) | > 64 | 8 (≈ 13.5 µM) | > 64 | 4 (≈ 6.73 µM) | 8 (≈ 13.5 µM) | 4 (≈ 6.73 µM) | > 64
COc1ccccc1Oc1c(/C=C2\SC(=S)N([C@@H](Cc3ccc(O)cc3)C(=O)O)C2=O)c(C)nn1-c1ccccc1 | – | > 64 | – | > 64 | – | – | > 32 | > 64
Cc1nn(-c2ccccc2)c(Oc2cccc(Cl)c2)c1/C=C1\SC(=S)N([C@@H](Cc2c[nH]c3ccccc23)C(=O)O)C1=O | 2 (≈ 3.25 µM) | > 64 | 4 (≈ 6.5 µM) | > 64 | 4 (≈ 6.5 µM) | 4 (≈ 6.5 µM) | 4 (≈ 6.5 µM) | > 64
Cc1onc(-c2ccccc2)c1C(=O)N[C@@H]1C(=O)N2[C@@H]1SC(C)(C)[C@@H]2C(=O)O [OXACILLIN] | > 64 | > 64 | 1 (≈ 2.49 µM) | 1 (≈ 2.49 µM) | > 64 | 1 (≈ 2.49 µM) | 1 (≈ 2.49 µM) | 1 (≈ 2.49 µM)
Cc1nn(-c2ccccc2)c(Oc2c(Cl)cccc2Cl)c1/C=C1\SC(=S)N([C@@H](Cc2ccc(O)cc2)C(=O)O)C1=O | 8 (≈ 12.8 µM) | > 64 | 16 (≈ 25.5 µM) | > 64 | 8 (≈ 12.8 µM) | 16 (≈ 25.5 µM) | 16 (≈ 25.5 µM) | > 64
Cc1ccc(Oc2c(/C=C3\SC(=S)N([C@@H](Cc4c[nH]c5ccccc45)C(=O)O)C3=O)c(C)nn2-c2ccccc2)cc1 | 2 (≈ 3.36 µM) | > 64 | 4 (≈ 6.73 µM) | > 64 | 2 (≈ 3.36 µM) | 4 (≈ 6.73 µM) | 4 (≈ 6.73 µM) | > 64
Cc1cccc(Oc2c(/C=C3\SC(=S)N([C@@H](Cc4ccc(O)cc4)C(=O)O)C3=O)c(C)nn2-c2ccccc2)c1 | 16 (≈ 28 µM) | > 64 | 16 (≈ 28 µM) | > 64 | 8 (≈ 14 µM) | 16 (≈ 28 µM) | 16 (≈ 28 µM) | > 64
COc1ccc(Oc2c(/C=C3\SC(=S)N([C@@H](Cc4c[nH]c5ccccc45)C(=O)O)C3=O)c(C)nn2-c2ccccc2)cc1 | 4 (≈ 6.55 µM) | > 64 | 8 (≈ 13.1 µM) | > 64 | 4 (≈ 6.55 µM) | 8 (≈ 13.1 µM) | 8 (≈ 13.1 µM) | > 64
Cc1nn(-c2ccccc2)c(Oc2ccccc2)c1/C=C1\SC(=S)N([C@@H](Cc2ccc(O)cc2)C(=O)O)C1=O | – | > 64 | – | > 64 | – | – | > 32 | > 64
Cc1nn(-c2ccccc2)c(Oc2ccccc2Cl)c1/C=C1\SC(=S)N([C@@H](Cc2ccc(O)cc2)C(=O)O)C1=O | – | > 64 | – | > 64 | – | – | > 32 | > 64
